This note sets out measurements from patent publication US20210179577A1, “AROMATIC SULFONAMIDE DERIVATIVES FOR THE TREATMENT OF ISCHEMIC STROKE” (Bayer Aktiengesellschaft, priority 2017, published 2021).

Holding throughout (format): cell-based
The target in one assay is T1, mouse P2X4 (Mus musculus, UniProt Q9JJX6).
T1 construct: expressed in transfected cells; host or cells: 1321N1 astrocytoma cells
T1 sequence (Q9JJX6 1-388): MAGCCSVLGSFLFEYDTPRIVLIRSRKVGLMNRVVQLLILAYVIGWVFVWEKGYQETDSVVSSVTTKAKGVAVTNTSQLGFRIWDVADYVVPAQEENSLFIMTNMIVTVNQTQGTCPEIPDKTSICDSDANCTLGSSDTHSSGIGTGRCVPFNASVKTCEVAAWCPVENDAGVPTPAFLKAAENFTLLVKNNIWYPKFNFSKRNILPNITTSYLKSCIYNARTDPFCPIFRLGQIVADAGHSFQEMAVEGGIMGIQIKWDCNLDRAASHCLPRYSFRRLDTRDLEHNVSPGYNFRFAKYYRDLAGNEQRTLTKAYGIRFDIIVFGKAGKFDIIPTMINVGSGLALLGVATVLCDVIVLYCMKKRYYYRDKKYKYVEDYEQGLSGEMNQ
The experiment in a line: FLIPR assay, mouse P2X4 1321N1 Astrocytoma Cells. The settings on record: agonist Mg-ATP at EC80. As to the method:
(§1) 1321N1 Astrocytoma cells stably expressing human P2X4 or rat P2X4 or mouse P2X4 were plated in Collagen ITO-treated microplate at a seeding density of 10000 cells/well and incubated overnight. P2X4 function was assessed by measuring intracellular calcium changes using the calcium-chelating dye Fluo8-AM (Molecular Devices) on a fluorescent imaging plate reader (FLEX/FLIPR station; Molecular Devices). On the day of the assay, the medium was removed and the cells were incubated for 30 min at […] and 5% CO2 in 30 μL of dye buffer (Hank's balanced salt solution, 10 mM HEPES, 1.8 mM CaCl2, 1 mM MgCl2, 2 mM probenecid, 5 mM D-glucose monohydrate, 5 μM Fluo8-AM, pH=7.4). Compounds diluted in probenecid buffer (Hank's balanced salt solution, 10 mM HEPES, 1.8 mM CaCl2, 1 mM MgCl2, 2 mM probenecid, 5 mM D-glucose monohydrate, pH=7.4) were added in a volume of 10 μL and allowed to incubate for 30 min at room temperature. The final assay DMSO concentration was 0.25%. The agonist, Mg-ATP (Sigma), was added in a volume of 10 μL at a concentration representing the EC80 value. EC80 was determined to be 0.5 μM for human and mouse P2X4 and 5 μM for rat P2X4. The fluorescence was measured for an interval of 120 sec at 2 sec intervals. The excitation and emission wavelengths used to monitor fluorescence were 470-495 nm and 515-575 nm, respectively. The data was analyzed based on the increase in peak relative fluorescence units (RFU) compared to the basal fluorescence and the data was normalized to the agonist control. The compounds were tested in triplicates per plate and mean values were plotted in Excel XLFit to determine IC50 values, percentage of maximal inhibition and the Hill coefficients.

For assay [1], the target named is T2, human P2X4 (Homo sapiens, UniProt Q99571).
T2 sequence (Q99571 1-388): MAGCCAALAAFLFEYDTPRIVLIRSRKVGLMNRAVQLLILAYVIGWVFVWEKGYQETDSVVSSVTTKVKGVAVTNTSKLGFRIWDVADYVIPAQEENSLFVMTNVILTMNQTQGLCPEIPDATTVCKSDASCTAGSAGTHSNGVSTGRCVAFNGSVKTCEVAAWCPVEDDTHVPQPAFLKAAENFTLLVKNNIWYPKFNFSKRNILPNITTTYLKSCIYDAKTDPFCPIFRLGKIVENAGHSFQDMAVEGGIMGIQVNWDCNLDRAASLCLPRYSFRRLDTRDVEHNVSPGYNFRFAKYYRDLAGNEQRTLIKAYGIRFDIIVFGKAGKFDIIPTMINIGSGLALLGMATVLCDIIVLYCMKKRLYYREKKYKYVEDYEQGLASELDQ
The experiment in a line: FLIPR assay, human P2X4 1321N1 Astrocytoma Cells. The settings on record: agonist Mg-ATP at EC80. Set-up: expressed in transfected cells. On the procedure: as §1

Assay [2] has as its target T2, human P2X4. The experiment in a line: Human P2X4 HEK Cell Electrophysiology Assay A (PatchLiner). On the set-up: expressed in transfected cells; host or cells: HEK293. As to conditions: ATP 5 μM, -80 mV; read-out: Human P2X4 HEK Cells (PatchLiner Electrophysiology) avg IC50. On the procedure: HEK293 cells stably expressing human P2X4 were seeded in T75 cell culturing flasks at a density of 7*106 cells and incubated overnight. P2X4 function was assayed using the automated patch clamp platform PatchLiner (Nanion) in single hole mode. Composition of extracellular buffer was (in mM) NaCl 145, KCl 4, HEPES 10, CaCl2) 1, MgCl2 0.5, D-glucose monohydrate 10, pH=7.4. The intracellular buffer contained (in mM): CsF 135, EGTA 1, HEPES 10, NaCl 10, pH 7.2. On the day of the assay, cells were harvested using Accumax (Sigma) and were resuspended in extracellular buffer. The ligand agonist, adenosine 5′-trisphosphate (ATP, 5 μM) was added in a volume of 5 μL, directly washed off by extracellular buffer (40 μL). The cells were voltage clamped at −80 mV and ligand was applied every 5 min. for 20 min. Over this period the agonist response was stable and compounds were measured in single concentration per well mode. Compounds diluted in extracellular buffer (final assay DMSO concentration 0.3%) were added in a volume of 40 μL and allowed to incubate for 8 min at room temperature. The data was analyzed based on the decrease in peak current amplitude and normalized to the agonist control. Mean values were plotted in Excel XLFit to determine IC50 values, percentage of maximal inhibition and the Hill coefficients.

The structures appear in SMILES notation. pIC50: −log10 of the molar value.

In the case of `NS(=O)(=O)c1cc(NC(=O)Cc2ccccc2Cl)ccc1-n1cc(C(F)(F)F)cn1` [Example 19, 2-(2-Chlorophenyl)-N-{3-sulfamoyl-4-[4-(trifluoromethyl)-1H-pyrazol-1-yl]phenyl}acetamide], at mouse P2X4, the pIC50 was 7.37 and the “Mouse P2X4 1321N1 Astrocytoma Cells (FLIPR Assay) avg Efficacy” value (“Mouse P2X4 1321N1 Astrocytoma Cells” for short) turned out to be 69%. For the same compound, at human P2X4 [1], the “Human P2X4 1321N1 Astrocytoma Cells (FLIPR Assay) avg Efficacy” value (from here on “Human P2X4 1321N1 Astrocytoma Cells”) stood at 60% and the pIC50 is 7.24. Also, the pIC50 on human P2X4 [2] is 6.95.

As to `N#Cc1cnn(-c2ccc(NC(=O)Cc3ccccc3Cl)cc2S(N)(=O)=O)c1` [Example 39, 2-(2-Chlorophenyl)-N-[4-(4-cyano-1H-pyrazol-1-yl)-3-sulfamoylphenyl]acetamide], at mouse P2X4, the pIC50 is 7.43 and the “Mouse P2X4 1321N1 Astrocytoma Cells” value turned out to be 87%. Moreover, on human P2X4 [1], the “Human P2X4 1321N1 Astrocytoma Cells” value stood at 83% and the pIC50 was 7.19. For the same compound, at human P2X4 [2], the pIC50 is 6.86.

Consider `NS(=O)(=O)c1cc(NC(=O)Cc2ccccc2Cl)ccc1-c1cnn(C(F)F)c1` [Example 326, 2-(2-Chlorophenyl)-N-{4-[1-(difluoromethyl)-1H-pyrazol-4-yl]-3-sulfamoylphenyl}acetamide], for which, on mouse P2X4, the pIC50 was 7.59 and the “Mouse P2X4 1321N1 Astrocytoma Cells” value came out at 87%. At human P2X4 [1], the “Human P2X4 1321N1 Astrocytoma Cells” value is on record as 80% and the pIC50 is 7.34. In addition, on human P2X4 [2], the pIC50 was 7.24.

As to `NS(=O)(=O)c1cc(NC(=O)Cc2ccccc2Cl)cnc1-n1cc(C(F)(F)F)cn1` [Example 380, 2-(2-Chlorophenyl)-N-{5-sulfamoyl-6-[4-(trifluoromethyl)-1H-pyrazol-1-yl]pyridin-3-yl}acetamide], the pIC50 on human P2X4 [2] is 6.49.

For orientation: pIC50 means the IC50 on a negative log10 scale, so that one unit is a factor of ten.
